The values below come from PMC10698726 (Molecular Pharmaceutics, 2023).

For one series, the target named is T1, OCT2 (Homo sapiens, UniProt O15244).
T1 sequence (O15244 1-555): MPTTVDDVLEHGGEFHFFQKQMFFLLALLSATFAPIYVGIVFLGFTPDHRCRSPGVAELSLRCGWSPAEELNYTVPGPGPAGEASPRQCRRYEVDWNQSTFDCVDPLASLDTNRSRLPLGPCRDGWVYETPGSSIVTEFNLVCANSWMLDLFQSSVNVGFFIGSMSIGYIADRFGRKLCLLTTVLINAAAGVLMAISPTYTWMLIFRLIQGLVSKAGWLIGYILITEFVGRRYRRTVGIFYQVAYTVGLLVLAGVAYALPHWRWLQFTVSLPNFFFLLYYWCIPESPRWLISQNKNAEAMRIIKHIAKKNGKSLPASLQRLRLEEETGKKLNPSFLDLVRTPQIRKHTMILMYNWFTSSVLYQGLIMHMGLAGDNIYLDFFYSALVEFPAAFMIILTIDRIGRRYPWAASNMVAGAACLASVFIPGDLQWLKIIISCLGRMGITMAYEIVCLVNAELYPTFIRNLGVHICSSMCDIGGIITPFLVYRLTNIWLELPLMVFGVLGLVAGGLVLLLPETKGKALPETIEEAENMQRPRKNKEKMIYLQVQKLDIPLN
The experiment in a line: Inhibition of model substrate uptake in OCT2-overexpressing HEK293 cells. The conditions noted are these: for ASP+ inhibition [%] / N-Ethyllidocaine inhibition [%] / inhibition at 5 min, 20 μM: 20 μM inhibitor.

The next series deals with T2, OCT1 (Homo sapiens, UniProt O15245).
T2 sequence (O15245 1-554): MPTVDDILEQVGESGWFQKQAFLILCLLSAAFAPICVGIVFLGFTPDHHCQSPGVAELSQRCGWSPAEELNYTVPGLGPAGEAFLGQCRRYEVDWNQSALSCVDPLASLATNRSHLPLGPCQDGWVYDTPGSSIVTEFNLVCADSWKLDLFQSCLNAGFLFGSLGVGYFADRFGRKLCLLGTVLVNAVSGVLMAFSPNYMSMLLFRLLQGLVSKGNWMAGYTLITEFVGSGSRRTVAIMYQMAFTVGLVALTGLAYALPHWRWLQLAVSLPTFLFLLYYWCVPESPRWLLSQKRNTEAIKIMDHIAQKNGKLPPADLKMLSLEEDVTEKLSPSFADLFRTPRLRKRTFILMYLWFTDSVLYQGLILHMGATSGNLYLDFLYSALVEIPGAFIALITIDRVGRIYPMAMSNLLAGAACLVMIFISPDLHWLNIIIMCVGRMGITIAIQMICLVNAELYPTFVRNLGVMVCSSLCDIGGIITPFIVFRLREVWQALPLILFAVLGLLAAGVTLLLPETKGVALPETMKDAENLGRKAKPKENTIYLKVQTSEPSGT
The series is described as follows: Inhibition of model substrate uptake in OCT1-overexpressing HEK293 cells. Format: cell-based. More on the design: expressed in transfected cells; host or cells: HEK293. The conditions noted are these: for inhibition at 5 min, 20 μM / selectivity ratio at 5 min: OCT1-overexpressing HEK293 cells; for selectivity ratio at 5 min: pH 7.4, OCT1, read-out: x-fold Stereoselectivity. The method, then:
Koepsell and Gorbulev (University of Würzburg, Germany).
Fluorescence quantification was performed in technical duplicates.

The target of series [1] is T3, OCT3 (Homo sapiens, UniProt O75751).
T3 construct: expressed in transfected cells; host or cells: HEK293
T3 sequence (O75751 1-556): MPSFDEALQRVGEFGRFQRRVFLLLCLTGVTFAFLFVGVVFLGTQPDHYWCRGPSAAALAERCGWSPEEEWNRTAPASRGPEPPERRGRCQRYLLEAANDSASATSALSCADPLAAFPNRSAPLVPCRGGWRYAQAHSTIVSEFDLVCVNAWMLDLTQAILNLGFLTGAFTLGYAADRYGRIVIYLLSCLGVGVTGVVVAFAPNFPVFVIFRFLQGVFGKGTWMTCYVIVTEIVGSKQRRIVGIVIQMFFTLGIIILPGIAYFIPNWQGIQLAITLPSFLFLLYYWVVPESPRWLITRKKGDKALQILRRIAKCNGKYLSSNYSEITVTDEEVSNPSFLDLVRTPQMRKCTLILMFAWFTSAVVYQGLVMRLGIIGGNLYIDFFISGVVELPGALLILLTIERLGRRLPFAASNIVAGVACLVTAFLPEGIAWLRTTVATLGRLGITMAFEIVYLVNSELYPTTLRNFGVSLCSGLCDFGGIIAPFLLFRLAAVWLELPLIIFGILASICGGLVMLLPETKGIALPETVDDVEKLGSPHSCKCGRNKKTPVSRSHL
The series is described as follows: Inhibition of model substrate uptake in OCT3-overexpressing HEK293 cells. Format: cell-based. The conditions noted are these: for stereoselective inhibition of OCT3 (in words): ethambutol and zolmitriptan as substrates; for IC50: OCT3, Table S5, 2 μM ASP+ or ethambutol as model substrate, read-out: IC50. The method in brief:
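IC50 values were fitted with a Hill equation from net uptake, calculated as uptake in overexpressing HEK293 cells minus empty-vector control uptake. Cells were exposed for 5 min to 2 μM model substrate alone, with 20 μM inhibitor, or with a concentration series. Uptake was quantified by ASP^+ fluorescence or LC–MS/MS after lysis in 80% acetonitrile.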

The target in series [2] is T3, OCT3. More on the design: method as in earlier work. The conditions noted are these: ref 3 (Gebauer et al., 2022, supplement), cited from earlier work.
The mark [3] stands for this setting: OCT2, 2 μM N-ethyllidocaine, 5 min.
Setting [4] is: OCT3, 20 μM inhibitor, 2 μM ASP+, 5 min.
Setting [5] is: human, OCT2-overexpressing HEK293 cells, pH 7.4, probe (S,S)-ethambutol (2 μM), (S,S)-Ethambutol inhibition [%], OCT2, 2 μM (S,S)-ethambutol, 5 min.
[6] abbreviates: human, OCT2-overexpressing HEK293 cells, pH 7.4, probe ASP+ (2 μM), ASP+ inhibition [%], OCT2, 2 μM ASP+, 5 min.
The mark [7] stands for this setting: human, OCT2-overexpressing HEK293 cells, pH 7.4, probe N-ethyllidocaine (2 μM), N-Ethyllidocaine inhibition [%], OCT2, 2 μM N-ethyllidocaine, 5 min.
Setting [8] is: human, pH 7.4, probe (S,S)-ethambutol (2 μM), (S,S)-Ethambutol inhibition [%], OCT1, 20 μM inhibitor, 2 μM (S,S)-ethambutol, 5 min.
[9] abbreviates: human, pH 7.4, probe ASP+ (2 μM), OCT1, 20 μM inhibitor, 2 μM ASP+, 5 min, mean of three experiments, read-out: ASP+ inhibition [%].
The mark [10] stands for this setting: human, pH 7.4, probe sumatriptan (2 μM), OCT1, 20 μM inhibitor, 2 μM sumatriptan, 5 min, read-out: Sumatriptan inhibition [%].
Where [11] appears, read: HEK293, 5 min, read-out: (S)-Zolmitriptan inhibition [%], OCT3, 20 μM inhibitor, 2 μM (S)-zolmitriptan, 5 min.
The mark [12] stands for this setting: HEK293, 5 min, read-out: (S,S)-Ethambutol inhibition [%], OCT3, 20 μM inhibitor, 2 μM (S,S)-ethambutol, 5 min.
[13] abbreviates: HEK293, OCT3, 20 μM inhibitor, 2 μM ASP+, 5 min, read-out: ASP+ inhibition [%].
Where [14] appears, read: human, ratio of the IC50 values of the two enantiomers of the drug.

Where two headings read alike, the source gives them in different places.

On to `CC(C)C[C@H](N(C)C)C1(c2ccc(Cl)cc2)CCC1` [(S)-Sibutramine], for which the “ASP+ inhibition [%]” value on OCT2 (OCT2, 2 μM ASP+, 5 min) is 83.9%; at OCT1 (OCT1, 20 μM inhibitor, 2 μM ASP+, 5 min, mean of three experiments), 38.0%; on OCT3 [1] (setting [4]), -0.8%. The “N-Ethyllidocaine inhibition [%]” value at OCT2 (setting [3]) is listed as 44.0%. Besides, on OCT1 (human, pH 7.4), the “Sumatriptan inhibition [%]” value turned out to be 72.0%. For the same molecule, the “(S)-Zolmitriptan inhibition [%]” value at OCT3 [1] is listed as 24.1. Moreover, at OCT3 [1], the “(S,S)-Ethambutol inhibition [%]” value amounted to 23.8.

Take `CC(C)(C)NC[C@H](O)COc1nsnc1N1CCOCC1` [(S)-Timolol]: the IC50 (as a rule, the point on the concentration scale where inhibition reaches its midpoint) against OCT2 (IC50, OCT2, Table S5, 2 μM ASP+ as model substrate, 5 min) is 60.2 µM. The inhibition – broadly, the relative decrease from the control value, in per cent – at 5 min, 20 μM against OCT2 (setting [5]) is 14.4%; at OCT2 (setting [6]), 50.1%; against OCT2 (setting [7]) it was 25.1%; against OCT1 (setting [8]), 25.6%; at OCT1 (setting [9]) it was 3.9%; on OCT1 (setting [10]), 42.1%. For the same molecule, the inhibition at 20 µM on OCT3 [1] (setting [11]) was 16.8%; on OCT3 [1] (setting [12]) it was 11.1%; on OCT3 [1] (setting [13]), 27.8%.

For `COc1ccc([C@@H](CN(C)C)C2(O)CCCCC2)cc1` [(S)-Venlafaxine], at OCT2 (OCT2, 2 μM ASP+, 5 min), the “ASP+ inhibition [%]” value is 21.8%. Further, the “N-Ethyllidocaine inhibition [%]” value on OCT2 (setting [3]) is 13.4%. In addition, on OCT1 (human, pH 7.4), the “Sumatriptan inhibition [%]” value was found to be 66.9%. Further, the inhibition at 20 µM on OCT3 [1] (HEK293, 5 min, read-out: (S)-Zolmitriptan inhibition [%]) is 21%; at OCT3 [1] (HEK293, 5 min, read-out: (S,S)-Ethambutol inhibition [%]), 4.6%; on OCT3 [1] (setting [13]), -11.4%.

With `CCCCN1CCCCC1C(=O)Nc1c(C)cccc1C` (stereo not shown) [Bupivacaine], the selectivity ratio at 5 min on OCT2 (human, OCT2-overexpressing HEK293 cells, pH 7.4) is 2.3; at OCT1 (setting [14]) it was 1.8. The “x-fold Stereoselectivity” value on OCT1 (OCT1, ratio of the IC50 values of the two enantiomers of the drug) is 1.2 fold. Moreover, the “stereoselective inhibition of OCT3 (in words)” value on OCT3 [1] (20 μM inhibitor) was “stereoselective inhibition”.

On to `NC(N)=Nc1nc(CSCCC(N)=NS(N)(=O)=O)cs1` [Famotidine], for which, on OCT3 [2] (read-out: Km ± SEM), the Km – broadly, the concentration of substrate that gives half-maximal velocity – was 8.91 µM. On OCT3 [2], the “Clint ± SEM” value is 27.2 and the “vmax ± SEM [pmol × mg Protein−1 × min−1]” value is listed as 242 pmol × mg Protein−1 × min−1.

`CCN(CC)CC#CCOC(=O)C(O)(c1ccccc1)C1CCCCC1` (stereo not shown) [Oxybutynine]: the “x-fold Stereoselectivity” value at OCT2 (OCT2, ratio of the IC50 values of the two enantiomers of the drug) was found to be 1.6 fold; at OCT3 [1] (OCT3, ratio of the IC50 values of the two enantiomers of the drug), 1.6 fold. Moreover, the selectivity ratio at 5 min on OCT1 (setting [14]) came out at 1.2. In addition, the “stereoselective inhibition of OCT3 (in words)” value at OCT3 [1] (20 μM inhibitor) is listed as “stereoselective inhibition”.

With `C=C[C@H]1C[N@@]2CC[C@H]1C[C@@H]2[C@@H](O)c1ccnc2ccc(OC)cc12` [Quinidine], the inhibition at 5 min, 20 μM against OCT2 (setting [5]) was found to be 13.3%; on OCT2 (setting [6]) it was 93.4%; on OCT2 (setting [7]) it was 50.8%; on OCT1 (setting [8]), 61.7%; at OCT1 (setting [9]), 13.1%; on OCT1 (setting [10]), 41.3%. Also, the inhibition at 20 µM at OCT3 [1] (setting [11]) is 67%; at OCT3 [1] (setting [12]) it was 85.9%; at OCT3 [1] (setting [13]), 38.9%. For the same molecule, the IC50 on OCT3 [1] (5 min) was 249 µM.

In the case of `C=C[C@H]1C[N@@]2CC[C@H]1C[C@H]2[C@H](O)c1ccnc2ccc(OC)cc12` [Quinine], the inhibition at 5 min, 20 μM came to 13.4% against OCT2 (setting [5]); 76.9% against OCT2 (setting [6]); 33.7% against OCT2 (setting [7]); 54.8% against OCT1 (setting [8]); 15.5% on OCT1 (setting [9]); 38.2% at OCT1 (setting [10]). Further, the inhibition at 20 µM was determined as 32.1% on OCT3 [1] (setting [11]), 46.2% at OCT3 [1] (setting [12]) and 10.3% on OCT3 [1] (setting [13]). Besides, the IC50 on OCT3 [1] (5 min) stood at 78.9 µM.

Regarding (+)-Sparteine, the “ASP+ inhibition [%]” value at OCT2 (OCT2, 2 μM ASP+, 5 min) is given as 112.4%; on OCT3 [1] (setting [4]) it was 5.2%. Also, the “N-Ethyllidocaine inhibition [%]” value on OCT2 (setting [3]) was found to be 99.9%. In addition, the “(S,S)-Ethambutol inhibition [%]” value on OCT1 (OCT1, 20 μM inhibitor, 2 μM (S,S)-ethambutol, 5 min) was 83.5%; on OCT3 [1] (OCT3, 20 μM inhibitor, 2 μM (S,S)-ethambutol, 5 min), 32.7%. In addition, on OCT1 (OCT1, 20 μM inhibitor, 2 μM sumatriptan, 5 min), the “Sumatriptan inhibition [%]” value was determined as 81.6%. Further, at OCT3 [1] (OCT3, 20 μM inhibitor, 2 μM (S)-zolmitriptan, 5 min), the “(S)-Zolmitriptan inhibition [%]” value turned out to be 28.7%.
